According to ChEMBL document CHEMBL4000246, “Total synthesis and cytotoxicity of Leucetta alkaloids” (Bioorg Med Chem, 2017):

system: MCF7; experiment: Cytotoxicity against human MCF7 cells assessed as growth inhibition after 96 hrs by MTT assay; assay type: functional, cell-based

Structure (SMILES)	IC50 [µM]
COC1=C(OC)C(=O)c2c(cc3c([nH]c(=O)n3C)c2-c2ccc(OC)cc2)C1=O	43.8
COC1=C(OC)C(=O)c2c(cc3c(nc(N)n3C)c2-c2ccc(OC)cc2)C1=O	> 100
COc1ccc(-c2c3cc(OC)c(OC)cc3cc3c2nc(N)n3C)cc1	4.4
COc1ccc(-c2c3nc(N)n(C)c3cc3cc(OC)c(OC)c(OC)c23)cc1	19.5
COc1ccc(-c2c3cc(OCc4ccccc4)c(OC)cc3cc3c2ncn3C)cc1	76.9
COc1ccc(-c2c3cc(OC)c(OC)cc3cc3c2ncn3C)cc1	99.8
COc1ccc(-c2c3ncn(C)c3cc3cc(OC)c(OC)c(OC)c23)cc1	> 100
COC1=C(OC)C(=O)c2c(cc3c(ncn3C)c2-c2ccc(OC)cc2)C1=O	92
COc1ccc(-c2c3[nH]c(=O)n(C)c3cc3cc(OC)c(OC)c(OC)c23)cc1	91.9
COc1ccc(-c2c3cc(OC)c(OC)c(OC)c3cc3c2nc(N)n3C)cc1	4.94
COc1ccc(-c2c3cc(OC)c(OC)c(OC)c3cc3c2ncn3C)cc1	68.2
COc1ccc(-c2c3cc(O)c(OC)cc3cc3c2ncn3C)cc1	41.1
COc1ccc(Cc2nc(N)n(C)c2Cc2ccc(OC)cc2)cc1	28.8
COc1ccc(Cc2c(C(OC)c3ccc(OC)cc3)nc(N)n2C)cc1 (stereo unspecified)	22.7
Cn1cc(Cc2ccc3c(c2)OCO3)nc1N	23.4
COc1ccc(Cc2nc(NC3=NC(=O)N(C)C3=O)n(C)c2Cc2ccc(OC)cc2)cc1	5.08
Cn1cnc(Cc2ccc3c(c2)OCO3)c1	> 100
CN1C(=O)N=C(Nc2nc(Cc3ccc4c(c3)OCO4)cn2C)C1=O [CLATHRIDINE]	> 100
COc1ccc(Cn2cc(Cc3ccc(OC)c(OC)c3)nc2/N=C2/NC(=O)N(C)C2=O)cc1 [ISONAAMIDINE E]	5.78
COc1ccc(Cn2cc(Cc3ccc(OC)c(OC)c3)nc2N)cc1 [ISONAAMINE C]	28
COc1ccc(-c2c3cc(O)c(OC)cc3cc3c2[nH]c(=N)n3C)cc1 [KEALIININE A]	> 100
